From ChEMBL document CHEMBL1201862, “PubChem BioAssay data set” (2004)
Active and inactive are the calls of the source.

Columns and labels:
[1] = target: Sphingosine 1-phosphate receptor 2 (Homo sapiens, UniProt O95136); assay: Dose Response Cell Based Assay for Agonists of the S1P2 Receptor of Purchased Analogues. [Related pubchem assays: 729, 843, 854, 736 ]; format: functional
[2] = target: NADPH oxidase 1 (Homo sapiens, UniProt Q9Y5S8); format: functional, cell-based;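 also: Cell-based assay with luminescence read-out, IC50 derived from inhibitor dose-response curves; intracellular ROS from endogenous NOX1 in intact HT29 colon cancer cells; potency of inhibitors that lower the ROS luminescence signal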
Chain of NADPH oxidase 1 (Q9Y5S8 whole entry): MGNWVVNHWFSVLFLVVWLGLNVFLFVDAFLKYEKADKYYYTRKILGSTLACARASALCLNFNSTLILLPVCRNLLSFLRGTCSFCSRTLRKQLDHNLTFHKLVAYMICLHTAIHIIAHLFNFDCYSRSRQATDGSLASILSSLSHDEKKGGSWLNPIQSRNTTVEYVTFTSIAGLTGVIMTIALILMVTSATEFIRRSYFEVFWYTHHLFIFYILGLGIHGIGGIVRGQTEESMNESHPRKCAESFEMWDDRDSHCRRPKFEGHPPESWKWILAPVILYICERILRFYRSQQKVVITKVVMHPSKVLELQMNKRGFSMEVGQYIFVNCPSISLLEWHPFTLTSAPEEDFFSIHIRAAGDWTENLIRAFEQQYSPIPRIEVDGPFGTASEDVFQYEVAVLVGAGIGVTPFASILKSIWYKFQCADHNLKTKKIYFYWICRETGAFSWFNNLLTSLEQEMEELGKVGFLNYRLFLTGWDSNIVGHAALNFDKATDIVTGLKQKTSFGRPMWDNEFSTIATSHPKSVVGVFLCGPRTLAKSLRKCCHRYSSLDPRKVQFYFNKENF

[3] = target: T1, Bcl-2-related protein A1 (Mus musculus, UniProt Q07440); assay: Bfl-1 inhibitors, primary screen, biochemical, fluorescence polarization, FITC-Bid, mouse (AID 432)
T1 sequence (Q07440 whole entry): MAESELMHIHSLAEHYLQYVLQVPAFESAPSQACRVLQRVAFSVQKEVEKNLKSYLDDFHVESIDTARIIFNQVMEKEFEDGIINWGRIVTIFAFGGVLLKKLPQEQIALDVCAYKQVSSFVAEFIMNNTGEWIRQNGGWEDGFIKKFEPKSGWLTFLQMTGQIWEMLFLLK

[4] = target: T1, Bcl-2-related protein A1; assay: Bfl-1 inhibitors blocking BH3 peptide binding, confirmation, biochemical, TR-FRET, mouse Bfl-1 (AID 621);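 also: TR-FRET binding of GST-Bfl-1 to FITC-labelled Bid peptide via terbium antibody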
[5] = target: Ras and Rab interactor 1/Tyrosine-protein kinase ABL1 (Homo sapiens, UniProt P00519+Q13671); format: functional;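 also: biochemical TR-FRET dose-response test measuring inhibition of binding between Rin1 and Abl proteins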
[6] = target: T2, Histone-lysine N-methyltransferase NSD2 (Homo sapiens, UniProt O96028); format: biochemical
T2 sequence (O96028 whole entry): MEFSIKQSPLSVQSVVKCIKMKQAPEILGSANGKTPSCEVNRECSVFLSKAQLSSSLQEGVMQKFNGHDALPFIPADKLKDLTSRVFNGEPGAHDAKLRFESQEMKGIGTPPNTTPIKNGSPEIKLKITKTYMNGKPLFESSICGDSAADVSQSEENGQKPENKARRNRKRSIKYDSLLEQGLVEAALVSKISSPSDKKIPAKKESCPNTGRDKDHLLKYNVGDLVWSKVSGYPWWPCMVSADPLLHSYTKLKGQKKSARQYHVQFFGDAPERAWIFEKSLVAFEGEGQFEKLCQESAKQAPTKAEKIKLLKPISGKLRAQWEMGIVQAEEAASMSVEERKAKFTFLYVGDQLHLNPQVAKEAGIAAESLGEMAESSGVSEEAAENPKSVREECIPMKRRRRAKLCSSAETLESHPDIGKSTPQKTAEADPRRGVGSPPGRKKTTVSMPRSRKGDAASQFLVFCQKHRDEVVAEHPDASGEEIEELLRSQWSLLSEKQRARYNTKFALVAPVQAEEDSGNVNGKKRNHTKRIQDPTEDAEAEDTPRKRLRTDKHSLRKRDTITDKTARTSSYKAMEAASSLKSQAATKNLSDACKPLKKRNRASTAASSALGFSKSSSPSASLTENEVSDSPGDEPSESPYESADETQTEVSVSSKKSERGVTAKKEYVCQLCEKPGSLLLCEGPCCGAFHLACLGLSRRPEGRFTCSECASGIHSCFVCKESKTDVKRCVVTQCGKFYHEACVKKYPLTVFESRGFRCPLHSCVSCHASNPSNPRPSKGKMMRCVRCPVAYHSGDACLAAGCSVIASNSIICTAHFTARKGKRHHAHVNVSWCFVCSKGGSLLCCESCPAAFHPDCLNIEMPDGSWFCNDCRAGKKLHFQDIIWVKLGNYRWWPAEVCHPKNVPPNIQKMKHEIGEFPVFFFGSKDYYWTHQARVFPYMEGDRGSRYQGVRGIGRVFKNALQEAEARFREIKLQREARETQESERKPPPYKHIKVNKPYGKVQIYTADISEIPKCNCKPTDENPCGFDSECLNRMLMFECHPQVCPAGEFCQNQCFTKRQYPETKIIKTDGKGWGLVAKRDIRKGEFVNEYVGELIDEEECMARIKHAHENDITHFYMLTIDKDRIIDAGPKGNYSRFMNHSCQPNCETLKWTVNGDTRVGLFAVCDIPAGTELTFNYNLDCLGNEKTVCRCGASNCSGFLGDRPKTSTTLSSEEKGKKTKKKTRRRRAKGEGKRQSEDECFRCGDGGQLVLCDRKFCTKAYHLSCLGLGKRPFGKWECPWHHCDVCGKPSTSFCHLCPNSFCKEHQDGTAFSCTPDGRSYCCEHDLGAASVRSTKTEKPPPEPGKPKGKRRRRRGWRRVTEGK

[7] = target: T3, Apoptotic protease-activating factor 1 (Homo sapiens, UniProt O14727); format: functional
T3 sequence (O14727 whole entry): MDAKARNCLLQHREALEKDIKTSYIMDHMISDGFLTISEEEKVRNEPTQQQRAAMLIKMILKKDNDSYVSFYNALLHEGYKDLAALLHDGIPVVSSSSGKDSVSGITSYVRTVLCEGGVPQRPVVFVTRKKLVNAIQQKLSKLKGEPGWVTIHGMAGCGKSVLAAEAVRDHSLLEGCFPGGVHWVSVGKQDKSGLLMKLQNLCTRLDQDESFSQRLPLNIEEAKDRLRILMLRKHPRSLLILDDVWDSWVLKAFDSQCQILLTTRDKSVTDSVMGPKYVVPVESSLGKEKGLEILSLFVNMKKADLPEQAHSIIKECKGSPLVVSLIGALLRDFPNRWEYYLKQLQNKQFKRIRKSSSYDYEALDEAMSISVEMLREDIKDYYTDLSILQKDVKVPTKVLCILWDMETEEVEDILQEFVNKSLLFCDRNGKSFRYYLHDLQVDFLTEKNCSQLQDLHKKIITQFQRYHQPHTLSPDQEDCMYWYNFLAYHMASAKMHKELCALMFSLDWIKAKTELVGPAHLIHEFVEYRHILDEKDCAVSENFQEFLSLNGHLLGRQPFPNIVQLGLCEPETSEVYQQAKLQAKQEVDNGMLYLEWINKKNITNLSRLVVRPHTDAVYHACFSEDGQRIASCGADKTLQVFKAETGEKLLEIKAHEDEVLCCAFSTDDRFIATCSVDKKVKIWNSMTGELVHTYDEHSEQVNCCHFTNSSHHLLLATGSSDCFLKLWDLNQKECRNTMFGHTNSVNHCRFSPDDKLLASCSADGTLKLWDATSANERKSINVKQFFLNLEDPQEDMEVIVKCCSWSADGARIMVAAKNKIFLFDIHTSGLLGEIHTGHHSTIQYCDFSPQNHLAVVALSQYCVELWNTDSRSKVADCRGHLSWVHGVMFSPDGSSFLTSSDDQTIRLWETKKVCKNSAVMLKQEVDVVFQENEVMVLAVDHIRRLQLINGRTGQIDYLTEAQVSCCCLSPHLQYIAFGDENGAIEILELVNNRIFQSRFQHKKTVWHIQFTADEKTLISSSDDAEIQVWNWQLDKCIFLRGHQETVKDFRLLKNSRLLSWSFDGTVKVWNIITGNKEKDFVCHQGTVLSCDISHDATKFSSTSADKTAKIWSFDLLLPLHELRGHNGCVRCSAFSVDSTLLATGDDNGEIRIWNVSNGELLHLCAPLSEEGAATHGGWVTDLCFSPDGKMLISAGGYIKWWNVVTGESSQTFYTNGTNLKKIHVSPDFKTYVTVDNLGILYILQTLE

[8] = target: T4, SUMO-activating enzyme (Homo sapiens, UniProt Q9UBT2); assay: inhibitors of in vitro SUMOylation cascade, primary screen, biochemical, HTRF, uHTS (AID 2006); format: protein-complex assay
T4 sequence (Q9UBE0 whole entry): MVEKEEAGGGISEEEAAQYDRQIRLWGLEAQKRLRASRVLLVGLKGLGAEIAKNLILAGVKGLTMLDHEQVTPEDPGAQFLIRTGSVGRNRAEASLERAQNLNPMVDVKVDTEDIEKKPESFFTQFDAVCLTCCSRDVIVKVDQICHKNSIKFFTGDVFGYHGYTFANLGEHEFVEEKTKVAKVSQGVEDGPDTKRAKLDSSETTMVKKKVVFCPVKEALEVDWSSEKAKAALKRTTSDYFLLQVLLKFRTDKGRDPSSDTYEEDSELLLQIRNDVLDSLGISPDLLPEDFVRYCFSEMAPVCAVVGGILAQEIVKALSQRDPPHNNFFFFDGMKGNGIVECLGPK
T4 sequence (Q9UBT2 whole entry): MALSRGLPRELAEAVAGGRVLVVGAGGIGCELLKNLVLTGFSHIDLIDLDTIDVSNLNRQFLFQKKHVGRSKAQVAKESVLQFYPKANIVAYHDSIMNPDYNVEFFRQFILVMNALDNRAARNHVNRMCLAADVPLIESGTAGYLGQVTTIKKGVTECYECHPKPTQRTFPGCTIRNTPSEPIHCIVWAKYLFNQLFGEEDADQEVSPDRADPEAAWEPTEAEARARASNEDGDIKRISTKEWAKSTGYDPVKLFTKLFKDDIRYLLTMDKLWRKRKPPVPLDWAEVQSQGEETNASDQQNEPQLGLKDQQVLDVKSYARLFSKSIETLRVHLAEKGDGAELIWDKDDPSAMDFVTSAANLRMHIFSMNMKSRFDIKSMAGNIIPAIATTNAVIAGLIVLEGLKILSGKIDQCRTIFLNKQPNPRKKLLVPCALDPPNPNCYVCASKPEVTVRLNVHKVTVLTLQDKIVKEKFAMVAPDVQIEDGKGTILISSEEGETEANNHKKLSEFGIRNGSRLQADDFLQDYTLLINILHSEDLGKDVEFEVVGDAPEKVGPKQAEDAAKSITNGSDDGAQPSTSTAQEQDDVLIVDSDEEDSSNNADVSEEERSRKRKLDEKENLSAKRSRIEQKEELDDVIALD

[9] = target: Tyrosyl-DNA phosphodiesterase 2 (Homo sapiens, UniProt O95551); assay: human TDP2 enzyme inhibitors, dose response, biochemical, epi absorbance, IC50 (AID 743297)
Chain of Tyrosyl-DNA phosphodiesterase 2 (O95551 whole entry): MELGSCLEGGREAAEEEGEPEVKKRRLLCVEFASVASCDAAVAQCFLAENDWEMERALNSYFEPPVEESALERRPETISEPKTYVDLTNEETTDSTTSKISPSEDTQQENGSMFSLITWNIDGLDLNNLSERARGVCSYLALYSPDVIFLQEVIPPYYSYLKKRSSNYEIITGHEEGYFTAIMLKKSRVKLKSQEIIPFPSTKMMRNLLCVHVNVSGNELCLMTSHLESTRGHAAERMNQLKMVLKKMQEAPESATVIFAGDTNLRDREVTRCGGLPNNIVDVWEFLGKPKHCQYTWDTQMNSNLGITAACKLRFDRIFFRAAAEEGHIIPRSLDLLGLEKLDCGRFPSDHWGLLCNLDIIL

[10] = target: T5, Serine/threonine-protein phosphatase (Homo sapiens, UniProt Q9BPW0); assay: PP5 phosphatase inhibitors, dose response, biochemical, fluorescence (AID 2395)
T5 sequence (Q9BPW0 whole entry): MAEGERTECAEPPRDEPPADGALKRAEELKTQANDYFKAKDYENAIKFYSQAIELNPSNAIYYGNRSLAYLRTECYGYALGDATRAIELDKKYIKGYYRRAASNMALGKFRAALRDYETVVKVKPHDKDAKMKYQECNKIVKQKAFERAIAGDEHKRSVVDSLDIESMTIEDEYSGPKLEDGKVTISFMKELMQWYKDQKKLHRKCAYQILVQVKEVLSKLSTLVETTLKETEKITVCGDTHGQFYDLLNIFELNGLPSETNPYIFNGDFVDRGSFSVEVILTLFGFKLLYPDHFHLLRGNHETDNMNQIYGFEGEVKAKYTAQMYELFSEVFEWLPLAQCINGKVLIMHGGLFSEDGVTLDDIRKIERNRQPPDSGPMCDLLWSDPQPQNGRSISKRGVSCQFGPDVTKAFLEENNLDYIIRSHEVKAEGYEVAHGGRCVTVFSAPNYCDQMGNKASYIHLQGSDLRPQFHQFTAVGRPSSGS

[11] = target: T6, Sentrin-specific protease 8 (Homo sapiens, UniProt Q96LD8); format: functional
T6 sequence (Q96LD8 whole entry): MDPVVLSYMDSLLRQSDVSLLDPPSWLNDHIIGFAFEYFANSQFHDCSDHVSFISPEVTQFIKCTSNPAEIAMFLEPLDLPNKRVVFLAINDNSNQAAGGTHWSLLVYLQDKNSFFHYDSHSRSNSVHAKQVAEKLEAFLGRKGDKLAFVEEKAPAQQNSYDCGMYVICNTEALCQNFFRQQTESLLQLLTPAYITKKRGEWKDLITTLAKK

[12] = target: Serine/threonine-protein phosphatase PP1-alpha catalytic subunit (Homo sapiens, UniProt P62136); assay: PP1 phosphatase inhibitors, dose response, biochemical, fluorescence (AID 2394)
Chain of Serine/threonine-protein phosphatase PP1-alpha catalytic subunit (P62136 whole entry): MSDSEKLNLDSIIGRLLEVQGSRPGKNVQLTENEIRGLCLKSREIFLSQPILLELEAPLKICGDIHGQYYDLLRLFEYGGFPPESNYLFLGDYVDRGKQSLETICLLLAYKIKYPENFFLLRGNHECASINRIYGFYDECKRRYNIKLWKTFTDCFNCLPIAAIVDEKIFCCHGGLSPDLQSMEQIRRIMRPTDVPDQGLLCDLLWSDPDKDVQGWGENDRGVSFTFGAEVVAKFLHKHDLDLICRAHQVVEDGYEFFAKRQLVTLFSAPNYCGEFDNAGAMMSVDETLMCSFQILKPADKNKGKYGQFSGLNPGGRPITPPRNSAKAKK

[13] = target: T4, SUMO-activating enzyme; assay: SUMOylation inhibitor hit validation, confirmation, SUMOylation inhibitor project, biochemical, AlphaScreen (AID 2018); format: functional
[14] = target: T6, Sentrin-specific protease 8; format: functional; remark: listed apart in the source
[15] = target: Mothers against decapentaplegic homolog 3 (Homo sapiens, UniProt P84022); assay: SMAD3 transcription factor inhibitors, dose response (AID 715); format: functional
Chain of Mothers against decapentaplegic homolog 3 (P84022 whole entry): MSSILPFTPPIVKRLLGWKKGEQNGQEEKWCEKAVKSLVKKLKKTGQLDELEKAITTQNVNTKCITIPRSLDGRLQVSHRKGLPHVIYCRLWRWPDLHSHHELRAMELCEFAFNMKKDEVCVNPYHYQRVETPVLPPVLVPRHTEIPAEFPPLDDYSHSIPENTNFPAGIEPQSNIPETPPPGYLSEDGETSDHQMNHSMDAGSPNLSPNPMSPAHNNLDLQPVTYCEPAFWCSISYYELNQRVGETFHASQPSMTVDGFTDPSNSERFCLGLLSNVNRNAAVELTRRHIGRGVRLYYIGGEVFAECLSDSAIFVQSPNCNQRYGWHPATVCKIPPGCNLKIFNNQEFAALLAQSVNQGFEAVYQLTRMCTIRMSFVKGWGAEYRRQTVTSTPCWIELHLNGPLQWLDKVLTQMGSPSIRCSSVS

[16] = Luminescence Cell-Based Dose Response to Identify Activators of 5'UTR Stem-Loop Driven Prion Protein mRNA Translation in H4-C Neuroglioblastoma Cells. [Related pubchem assays: 1829 (Project Summary), 1814 (Primary HTS)]; format: functional
[17] = Luminescence Cell-Based Dose Response to Identify Activators of Luciferase Translation or Activity in H4-C Neuroglioblastoma Cells. [Related pubchem assays: 1829 (Project Summary), 1814 (Primary HTS)]; format: functional
[18] = Luminescence Cell-Based Dose Confirmation to Identify Activators of 5'UTR Stem-Loop Driven Alpha-Synuclein mRNA Translation in H4 Neuroglioblastoma Cells. [Related pubchem assays: 1829 (Project Summary), 1814 (Primary HTS)]; format: functional
[19] = test system: H4; assay: Luminescence Cell-Based Dose Response HTS to Identify Activators of 5'UTR Stem-Loop Driven Prion Protein mRNA Translation in H4 Neuroglioblastoma Cells. [Related pubchem assays: 1829 (Project Summary), 1814 (Primary HTS)]; format: functional; conditions: Homo sapiens
[20] = Luminescence Cell-Based Dose Response HTS to Identify Activators of Luciferase Translation or Activity in H4 […] Cells. [Related pubchem assays: 1829 (Project Summary), 1814 (Primary HTS)]; format: functional
[21] = Luminescence Cell-Based Dose Confirmation HTS to Identify Activators of 5'UTR Stem-Loop Driven Alpha-Synuclein mRNA Translation in H4 Neuroglioblastoma Cells. [Related pubchem assays: 1829 (Project Summary), 1814 (Primary HTS)]; format: functional
[22] = target: Lytic switch protein BZLF1 (Epstein-Barr virus (strain B95-8) (HHV-4) (Human herpesvirus 4), UniProt P03206); assay: EBV ZTA inhibitors, dose response, counter-screen for EBNA-1 inhibitor project, biochemical, fluorescence polarization, Epstein-Barr virus, 1536-well (AID 2377); parameters: species or system human gammaherpesvirus 4;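 also: fluorescence polarization of Cy5-labelled ZRE DNA probe bound by purified Zta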
Chain of Lytic switch protein BZLF1 (P03206 whole entry): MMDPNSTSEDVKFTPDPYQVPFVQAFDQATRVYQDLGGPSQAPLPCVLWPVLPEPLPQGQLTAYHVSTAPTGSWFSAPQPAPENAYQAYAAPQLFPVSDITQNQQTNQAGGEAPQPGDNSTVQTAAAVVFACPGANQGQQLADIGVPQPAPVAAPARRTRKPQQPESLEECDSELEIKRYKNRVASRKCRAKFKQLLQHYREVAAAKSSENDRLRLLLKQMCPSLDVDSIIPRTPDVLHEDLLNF

[23] = target: Cytochrome P450 2C9 (Homo sapiens, UniProt P11712)
Chain of Cytochrome P450 2C9 (P11712 whole entry): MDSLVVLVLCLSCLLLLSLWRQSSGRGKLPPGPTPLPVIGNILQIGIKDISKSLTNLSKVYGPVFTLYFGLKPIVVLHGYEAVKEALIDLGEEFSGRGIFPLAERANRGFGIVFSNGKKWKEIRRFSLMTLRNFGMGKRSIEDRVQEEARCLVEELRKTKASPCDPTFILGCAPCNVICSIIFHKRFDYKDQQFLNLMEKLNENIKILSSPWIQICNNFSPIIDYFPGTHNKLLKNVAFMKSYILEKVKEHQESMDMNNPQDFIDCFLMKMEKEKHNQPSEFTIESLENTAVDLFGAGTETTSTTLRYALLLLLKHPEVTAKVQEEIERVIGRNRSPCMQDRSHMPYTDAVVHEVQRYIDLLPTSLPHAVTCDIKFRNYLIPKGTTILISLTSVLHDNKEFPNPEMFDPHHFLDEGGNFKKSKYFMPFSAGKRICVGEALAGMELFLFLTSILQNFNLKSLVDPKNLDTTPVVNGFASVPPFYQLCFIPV

[24] = target: Epstein-Barr nuclear antigen 1 (Epstein-Barr virus (strain B95-8) (HHV-4) (Human herpesvirus 4), UniProt P03211); assay: EBNA-1 inhibitors, dose response, biochemical, fluorescence polarization, 1536-well (AID 2381); parameters: species or system human gammaherpesvirus 4;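 also: fluorescence polarization of a Cy5 DNA probe bound by EBNA-1 protein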
Chain of Epstein-Barr nuclear antigen 1 (P03211 whole entry): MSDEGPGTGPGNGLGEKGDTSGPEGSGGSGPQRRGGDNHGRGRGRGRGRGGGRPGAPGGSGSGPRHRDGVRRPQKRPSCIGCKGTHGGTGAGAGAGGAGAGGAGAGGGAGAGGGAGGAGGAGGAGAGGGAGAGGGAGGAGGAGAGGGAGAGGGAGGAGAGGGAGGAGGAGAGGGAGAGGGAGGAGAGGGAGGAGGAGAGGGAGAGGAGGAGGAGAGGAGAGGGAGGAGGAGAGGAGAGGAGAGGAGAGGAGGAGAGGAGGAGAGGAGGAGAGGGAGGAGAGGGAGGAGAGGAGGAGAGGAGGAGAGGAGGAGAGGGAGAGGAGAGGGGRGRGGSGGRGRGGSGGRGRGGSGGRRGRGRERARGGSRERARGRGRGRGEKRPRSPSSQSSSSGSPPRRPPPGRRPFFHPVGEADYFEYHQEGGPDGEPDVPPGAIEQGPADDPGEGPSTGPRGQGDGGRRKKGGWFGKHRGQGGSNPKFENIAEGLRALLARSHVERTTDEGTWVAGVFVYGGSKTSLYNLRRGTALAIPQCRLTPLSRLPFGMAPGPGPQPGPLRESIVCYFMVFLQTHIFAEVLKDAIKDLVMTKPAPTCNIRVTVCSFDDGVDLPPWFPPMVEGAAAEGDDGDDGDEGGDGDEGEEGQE

[25] = target: Cytochrome P450 2D6 (Homo sapiens, UniProt P10635);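 also: CYP2D6 member of a cytochrome P450 panel assay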
Chain of Cytochrome P450 2D6 (P10635 whole entry): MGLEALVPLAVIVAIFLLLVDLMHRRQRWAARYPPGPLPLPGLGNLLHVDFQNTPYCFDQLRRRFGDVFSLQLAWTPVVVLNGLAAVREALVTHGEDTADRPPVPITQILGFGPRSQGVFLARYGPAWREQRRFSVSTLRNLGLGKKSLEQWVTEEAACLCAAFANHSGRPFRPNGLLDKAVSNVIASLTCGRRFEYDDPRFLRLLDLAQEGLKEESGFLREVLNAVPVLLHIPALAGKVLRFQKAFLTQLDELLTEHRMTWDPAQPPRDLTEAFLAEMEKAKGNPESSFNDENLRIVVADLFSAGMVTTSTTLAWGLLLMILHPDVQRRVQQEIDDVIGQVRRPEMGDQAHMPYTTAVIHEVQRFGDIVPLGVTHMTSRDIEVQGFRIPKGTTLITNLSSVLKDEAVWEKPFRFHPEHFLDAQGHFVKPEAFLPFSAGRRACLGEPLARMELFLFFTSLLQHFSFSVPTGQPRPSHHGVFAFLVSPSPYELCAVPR

Chain of Sphingosine 1-phosphate receptor 2 (O95136 whole entry): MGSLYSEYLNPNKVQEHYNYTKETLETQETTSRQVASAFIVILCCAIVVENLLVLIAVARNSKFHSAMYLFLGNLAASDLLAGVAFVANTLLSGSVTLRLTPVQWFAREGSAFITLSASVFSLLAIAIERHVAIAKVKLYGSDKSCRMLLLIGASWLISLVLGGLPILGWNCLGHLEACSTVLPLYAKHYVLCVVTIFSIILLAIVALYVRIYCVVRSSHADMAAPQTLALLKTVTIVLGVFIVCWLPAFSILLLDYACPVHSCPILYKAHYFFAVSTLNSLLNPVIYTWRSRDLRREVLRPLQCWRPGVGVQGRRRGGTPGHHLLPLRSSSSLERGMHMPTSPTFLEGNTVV

Compound: CC(=O)Nc1ccc(OCC(=O)c2cc(C)n(Cc3ccccc3)c2C)cc1
- EC50 [1]: > 30 µM (not active)

Compound: O=C(Cc1ccc([N+](=O)[O-])cc1)Nc1ccc(Oc2ccccc2)cc1
- IC50 [2]: > 17 µM (not active)

Compound: CCCN1CC=C2C(C#N)=C(N)C(C#N)(C#N)C(c3cccc(OC)c3OC)C2C1 (stereo not given)
- IC50 [3]: > 100 µM (not active)
- IC50 [4]: > 100 µM (not active)

Compound: CC(=O)C1=C(C)OC2(O)c3ccccc3C(=O)C12O (stereo not given)
- IC50 [5]: > 73.4 µM (inactive)
- AC50 [6]: 4.82 µM (active)
- IC50 [7]: 8.19 µM (active)
- IC50 [8]: 16.6 µM (active)
- IC50 [9]: 7.52 µM (active)
- IC50 [10]: > 2.48 µM (active)
- IC50 [11]: 0.455 µM (active)
- IC50 [12]: > 67 µM (not active)
- IC50 [13]: 3.09 µM (active)
- IC50 [14]: 0.754 µM (active)

Compound: Cc1ccc(CCN2CC(C(=O)NCCCN3CCCCCC3)CC2=O)cc1 (stereo not given)
- IC50 [15]: 11.1 µM (active)

Compound: O=c1c2ccccc2ncn1/N=C/c1ccccc1
- EC50 [16]: 2.06 µM (active)
- EC50 [17]: 1.16 µM (active)
- EC50 [18]: 0.53 µM (active)
- EC50 [19]: 0.525 µM (active)
- EC50 [20]: < 0.1 µM (active)
- EC50 [21]: < 0.1 µM (active)

Compound: COc1ccc(/C=C/C(=O)Oc2cccc(/C=N/NC(=O)COc3c(C)cccc3C)c2)cc1
- IC50 [22]: > 111 µM (not active)
- AC50 [23]: 3.55 µM (inconclusive)
- IC50 [24]: 6.28 µM (active)
- AC50 [25]: inconclusive
